Experimental data taken from patent publication US4039736A (Bristol-Myers Company, priority 1976, dated 1977).
Values after ≈ are worked out from the molar mass of the structure shown.

Columns and labels:
[1] = system: Staphylococcus aureus A-9497; assay: MIC, standard tube dilution procedure; format: cell-based; conditions: Staphylococcus aureus, A9497
Candida krusei A-15052 = assay: MIC, standard tube dilution procedure; format: cell-based; conditions: Pichia kudriavzevii, A15052
[2] = system: Cryptococcus neoformans A-1503; assay: MIC, standard tube dilution procedure; format: cell-based; conditions: Cryptococcus neoformans, A1503
[3] = system: Trichophyton mentagrophytes A-9870; assay: MIC, standard tube dilution procedure; format: cell-based; conditions: Trichophyton mentagrophytes, A9870
Escherichia coli A-21780 = assay: MIC, standard tube dilution procedure; format: cell-based; conditions: Escherichia coli, A21780
Candida albicans A-9540 = assay: MIC, standard tube dilution procedure; format: cell-based; conditions: Candida albicans, A9540
P-388 leukemia = assay: transplanted mouse leukemia P-388 (ascitic); conditions: Example 7 column fraction
Procedure: (§1) The compounds of the present invention were also tested against various transplantable rodent tumer systems.
(§2) Single injection Day 1 intraperitoneally.?
(§3) T/C percent MST=median survival time in days: Treated/Control × 100

Proteus mirabilis A-9900 = assay: MIC, standard tube dilution procedure; format: cell-based; conditions: Proteus mirabilis, A9900
[4] = system: Staphylococcus aureus A-9537; assay: MIC, standard tube dilution procedure; format: cell-based; conditions: Staphylococcus aureus, A9537
[5] = system: Streptococcus pyogenes A-9604; assay: MIC, standard tube dilution procedure; format: cell-based; conditions: Streptococcus pyogenes, A9604
Escherichia coli A-15119 = assay: MIC, standard tube dilution procedure; format: cell-based; conditions: Escherichia coli, A15119
[6] = system: Candida tropicalis A-15051; assay: MIC, standard tube dilution procedure; format: cell-based; conditions: Candida tropicalis, A15051
[7] = acute intraperitoneal LD50 in mice; conditions: mouse, in vivo, ip
[8] = system: Streptococcus pneumoniae A-9585; assay: MIC, standard tube dilution procedure; format: cell-based; conditions: Streptococcus pneumoniae, A9585
L-1210 leukemia [9] = assay: L-1210 mouse leukemia, purified compounds, BDF1 female mice
Procedure: Inoculum: 10^6 ascitic cells, i.p. into BDF1 female mice
Treatment: i.p. in 0.5 ml. volume
Evaluation: MST = median survival time in days; %T/C = MST treated/MST
(prolongation of host survival)

L-1210 leukemia [10] = assay: transplanted mouse leukemia L-1210 (ascitic); conditions: Example 7 column fraction
Procedure: as §1, §2, §3

[11] = system: Klebsiella pneumoniae A-9977; assay: MIC, standard tube dilution procedure; format: cell-based; conditions: Klebsiella pneumoniae, A9977
[12] = 3.2 mg/kg/day i.p., Day 1, 1 injection
[13] = 3.2 mg/kg/day i.p., Day 1→5, 5 injections
[14] = 6.4 mg/kg/day i.p., Day 1, 1 injection
[15] = 6.4 mg/kg/day i.p., Day 1→5, 4 injections
[16] = 12.8 mg/kg/day i.p., Day 1, 1 injection
[17] = .2 mg/kg/day i.p., Day 1→5, 5 injections
[18] = .4 mg/kg/day i.p., Day 1, 1 injection
[19] = .4 mg/kg/day i.p., Day 1→5, 5 injections
[20] = .8 mg/kg/day i.p., Day 1, 1 injection
[21] = .8 mg/kg/day i.p., Day 1→5, 5 injections

Compound: CC[C@@]1(O)C[C@H](O[C@H]2C[C@H](N(C)C)[C@H](O[C@H]3C[C@H](O)[C@H](O[C@H]4C[C@H](O)[C@H](O)[C@H](C)O4)[C@H](C)O3)[C@H](C)O2)c2c(cc3c(c2O)C(=O)c2c(O)ccc(O)c2C3=O)[C@H]1C(=O)OC [marcellomycin]
- MIC [1]: 1 µg/mL (≈ 1.18 µM)
- MIC (Candida krusei A-15052): 125 µg/mL (≈ 148 µM)
- MIC [2]: 125 µg/mL (≈ 148 µM)
- MIC [3]: > 125 µg/mL
- MIC (Escherichia coli A-21780): 32 µg/mL (≈ 37.8 µM)
- MIC (Candida albicans A-9540): 125 µg/mL (≈ 148 µM)
- activity on P-388 mouse leukemia (P-388 leukemia): high activity
- MIC (Proteus mirabilis A-9900): > 125 µg/mL
- MIC [4]: 1 µg/mL (≈ 1.18 µM)
- MIC [5]: 0.03 µg/mL (≈ 0.0355 µM)
- MIC (Escherichia coli A-15119): 125 µg/mL (≈ 148 µM)
- MIC [6]: 125 µg/mL (≈ 148 µM)
- LD50 [7]: 6.35 to 10.6 mg/kg
- MIC [8]: 0.03 µg/mL (≈ 0.0355 µM)
- Average Weight Change (L-1210 leukemia [9]; [12]): -0.7 g
- MST %T/C (L-1210 leukemia [9]; [12]): 157%
- MST Days (L-1210 leukemia [9]; [12]): 11.0 days
- Survivors Day 5 (L-1210 leukemia [9]; [12]): 6/6
- Average Weight Change (L-1210 leukemia [9]; [13]): -1.2 g
- MST %T/C (L-1210 leukemia [9]; [13]): 86%
- MST Days (L-1210 leukemia [9]; [13]): 6.0 days
- Survivors Day 5 (L-1210 leukemia [9]; [13]): 3/6
- Average Weight Change (L-1210 leukemia [9]; [14]): -0.7 g
- MST %T/C (L-1210 leukemia [9]; [14]): 157%
- MST Days (L-1210 leukemia [9]; [14]): 11.0 days
- Survivors Day 5 (L-1210 leukemia [9]; [14]): 6/6
- Average Weight Change in g. (L-1210 leukemia [9]; [15]): TOXIC
- MST %T/C (L-1210 leukemia [9]; [15]): TOXIC
- MST Days (L-1210 leukemia [9]; [15]): TOXIC
- Survivors Day 5 (L-1210 leukemia [9]; [15]): 0/6
- Average Weight Change (L-1210 leukemia [9]; [16]): -0.7 g
- MST %T/C (L-1210 leukemia [9]; [16]): 143%
- MST Days (L-1210 leukemia [9]; [16]): 10.0 days
- Survivors Day 5 (L-1210 leukemia [9]; [16]): 3/6
- Average Weight Change (L-1210 leukemia [9]; [17]): -1.1 g
- MST %T/C (L-1210 leukemia [9]; [17]): 129%
- MST Days (L-1210 leukemia [9]; [17]): 9.0 days
- Survivors Day 5 (L-1210 leukemia [9]; [17]): 6/6
- Average Weight Change (L-1210 leukemia [9]; [18]): -0.8 g
- MST %T/C (L-1210 leukemia [9]; [18]): 129%
- MST Days (L-1210 leukemia [9]; [18]): 9.0 days
- Survivors Day 5 (L-1210 leukemia [9]; [18]): 6/6
- Average Weight Change (L-1210 leukemia [9]; [19]): 0 g
- MST %T/C (L-1210 leukemia [9]; [19]): 129%
- MST Days (L-1210 leukemia [9]; [19]): 9.0 days
- Survivors Day 5 (L-1210 leukemia [9]; [19]): 6/6
- Average Weight Change (L-1210 leukemia [9]; [20]): 0 g
- MST %T/C (L-1210 leukemia [9]; [20]): 150%
- MST Days (L-1210 leukemia [9]; [20]): 10.5 days
- Survivors Day 5 (L-1210 leukemia [9]; [20]): 6/6
- Average Weight Change (L-1210 leukemia [9]; [21]): -0.2 g
- MST %T/C (L-1210 leukemia [9]; [21]): 143%
- MST Days (L-1210 leukemia [9]; [21]): 10.0 days
- Survivors Day 5 (L-1210 leukemia [9]; [21]): 6/6
- potency relative to musettamycin in inhibitory effects on L-1210 (L-1210 leukemia [9]; purified, L-1210 mouse leukemia): about four times
- activity on L-1210 mouse leukemia (L-1210 leukemia [10]): high activity
- MIC [11]: 125 µg/mL (≈ 148 µM)
